Data as given in US20250282754A1, “BICYCLIC COMPOUNDS AND THEIR USE AS PEST CONTROL AGENTS” (Pl Industries Ltd., priority 2022, published 2025).

How the values were obtained:
Type in all cases: in vivo
Myzus persicae = Myzus persicae leaf dip test (capsicum leaves, third instar nymphs); conditions: foliar, dead and moribund third instar nymphs 72 h after release, compared to untreated controls, read-out: percent mortality
Description: The leaf dip method was used for testing, wherein the required quantity of the compound was weighed and dissolved in a tube containing a solvent solution. The tube was put on a vortex at 2000 rpm for proper mixing and then diluted with a 0.01% Triton-X solution to the desired test concentration. Capsicum leaves were dipped in the compound solution for 10 seconds, shade dried for 20 min and then placed, with the abaxial side of the leaf up, in single cells of a bio-assay tray containing 4 ml of a solidified 1% agar-agar solution. Known numbers of third instar nymphs of Myzus persicae, collected in petri plates, were released into the cell with the treated leaf and the cell was covered with a perforated lid for better aeration. The trays were kept in a plant growth chamber at a temperature of 25° C. and a relative humidity of 70%. Observations on dead, moribund and alive nymphs were recorded 72 h after the release. Percent mortality was calculated by combining dead and moribund nymphs and comparing the result with the one of the untreated controls. The compounds

Bemisia tabaci = Bemisia tabaci leaf dip test (brinjal leaves, whitefly adults); conditions: foliar, dead and moribund whitefly adults 72 h after release, compared to untreated controls, read-out: percent mortality
Description: The leaf dip method was used for testing, wherein the required quantity of the compound was weighed and dissolved in a tube containing a solvent solution. The tube was put on a vortex at 2000 rpm for proper mixing and then diluted with a 0.01% Triton-X solution to the desired test concentration. Brinjal leaves were dipped in the compound solution for 10 seconds; shade dried for 20 min and then placed, with the abaxial side of the leaf up, on 4 ml of a solidified 1% agar-agar solution in respective container caps. Known numbers of freshly emerged whitefly adults were collected, using a modified aspirator, and released into a perforated container in which the cap containing the treated leaf was placed. The containers were kept in a plant growth chamber at a temperature of 25° C. and relative humidity of 70%. Observations on dead, moribund and alive adults were recorded 72 h after the release. Percent mortality was calculated by combining dead and moribund adults and comparing the result to the one of the untreated controls. The compounds 1 9 11 18 25 28 29 30 31

Nilaparvata lugens = Nilaparvata lugens seedling dip test (paddy seedlings, third instar nymphs); conditions: dead and moribund third instar nymphs 72 h after release, compared to untreated controls, read-out: percent mortality
Description: The seedling dip method was used for testing, wherein the required quantity of the compound was weighed and dissolved in a tube containing a solvent solution. The tube was put on a vortex at 2000 rpm for proper mixing and then diluted with a 0.01% Triton-X solution to the desired test concentration. Paddy seedlings were dipped in the compound solution for 10 seconds, shade dried for 20 min and then the seedlings were placed in glass test tubes with the roots kept in water. 15 third instar nymphs of Nilaparvata lugens were released into each test tube and the tubes were kept in a plant growth chamber at a temperature of 25° C. and relative humidity of 75%. Observations on dead, moribund and alive nymphs were recorded 72 h after the release. Percent mortality was calculated by combining dead and moribund nymphs and comparing the result to the one of the untreated controls. The compounds

Structure (SMILES) | mortality at 300 ppm (Myzus persicae) | mortality at 300 ppm (Bemisia tabaci) | mortality at 300 ppm (Nilaparvata lugens)
CS(C)(=O)=Nc1ccc(Cl)c2nn(-c3cccnc3)cc12 [Compound 217] | ≥ 70% |  | 
CC1(CS(=N)(=O)c2ccc3nn(-c4cncc(F)c4)cc3c2)COC1 (stereo not shown) [Compound 484, (2-(5-fluoropyridin-3-yl)-2H-indazol-5-yl)(imino)((3-methyloxetan-3-yl)methyl)-λ^6-sulfanone] | ≥ 70% |  | 
COc1nn(-c2ccc3nn(-c4cccnc4)cc3c2)c(=O)n1Cc1ccc(F)cc1 [Compound 124, 4-(4-fluorobenzyl)-5-methoxy-2-(2-(pyridin-3-yl)-2H-indazol-5-yl)-2,4-dihydro-3H-1,2,4-triazol-3-one] | ≥ 70% | ≥ 70% | 
O=S(CCC(F)(F)F)(=Nc1ccc2nn(-c3ccnnc3)cc2c1)c1ccc(F)cc1 (stereo not shown) [Compound 70] | ≥ 70% |  | 
CC(=O)N=S(=O)(CCCF)c1ccc2nn(-c3cncc(F)c3)cc2c1 (stereo not shown) [Compound 487] | ≥ 70% |  | 
CCC(CC)S(=O)(=NC(C)=O)c1ccc2nn(-c3cncc(F)c3)cc2c1 (stereo not shown) [Compound 485] | ≥ 70% |  | 
CS(C)(=O)=Nc1ccc2nn(-c3cncc(F)c3)cc2n1 [Compound 306] | ≥ 70% | ≥ 70% | 
COc1nn(-c2ccc3nn(-c4cccnc4)cc3c2)c(=O)n1C [Compound 110, 5-methoxy-4-methyl-2-(2-(pyridin-3-yl)-2H-indazol-5-yl)-2,4-dihydro-3H-1,2,4-triazol-3-one] | ≥ 70% | ≥ 70% | 
CC(C)S(C)(=O)=Nc1cccc2nn(-c3cncc(F)c3)cc12 (stereo not shown) [Compound 90] | ≥ 70% |  | 
CC(C)S(=O)(=Nc1ccc2nn(-c3cccnc3)cc2n1)C(C)C [Compound 255] | ≥ 70% | ≥ 70% | 
CC(C)S(C)(=O)=Nc1cnc2nn(-c3cccnc3)cc2c1 (stereo not shown) [Compound 156] | ≥ 70% |  | 
CCS(=O)(CC)=Nc1cccc2nn(-c3cncc(F)c3)cc12 [Compound 89] | ≥ 70% |  | 
N#CCCCS(=N)(=O)c1ccc2nn(-c3cccnc3)cc2c1 (stereo not shown) [Compound 564, 4-(2-(pyridin-3-yl)-2H-indazole-5-sulfonimidoyl)butanenitrile] | ≥ 70% |  | 
CCCS(=O)(=Nc1ccc2nn(-c3cccnc3)cc2n1)C(C)C (stereo not shown) [Compound 254] | ≥ 70% | ≥ 70% | 
CCCS(C)(=O)=Nc1ccc2nn(-c3cccnc3)cc2n1 (stereo not shown) [Compound 239] | ≥ 70% | ≥ 70% | 
CC(C)S(=O)(CC1CC1)=Nc1ccc2nn(-c3cccnc3)cc2n1 (stereo not shown) [Compound 288] | ≥ 70% | ≥ 70% | 
CCCS(=O)(=NC(C)=O)c1ccc2nn(-c3cncc(F)c3)cc2c1 (stereo not shown) [Compound 483] | ≥ 70% |  | 
N=S(=O)(CC1CCCO1)c1ccc2nn(-c3cccnc3)cc2c1 (stereo not shown) [Compound 569, imino(2-(pyridin-3-yl)-2H-indazol-5-yl)((tetrahydrofuran-2-yl)methyl)-λ^6-sulfanone] | ≥ 70% |  | 
CCC(C)S(=O)(=NC(C)=O)c1ccc2nn(-c3cncc(F)c3)cc2c1 (stereo not shown) [Compound 486] | ≥ 70% |  | 
N=S(=O)(c1ccc2nn(-c3cccnc3)cc2c1)C1CCCC1 (stereo not shown) [Compound 558, cyclopentyl(imino)(2-(pyridin-3-yl)-2H-indazol-5-yl)-λ^6-sulfanone] | ≥ 70% |  | 
CC(=O)N=S(C)(=O)c1ccc2nn(-c3cncnc3)cc2c1 (stereo not shown) [Compound 475] |  | ≥ 70% | ≥ 70%
CCS(C)(=O)=Nc1ccc2nn(-c3cncnc3)cc2n1 (stereo not shown) [Compound 314] | ≥ 70% | ≥ 70% | 
CN=S(=O)(CC1CC1)c1ccc2nn(-c3cncnc3)cc2c1 (stereo not shown) [Compound 447] |  | ≥ 70% | ≥ 70%
CCS(=O)(=NC(C)=O)c1ccc2nn(-c3cncc(F)c3)cc2c1 (stereo not shown) [Compound 462] |  | ≥ 70% | ≥ 70%
CCS(C)(=O)=Nc1ccc2nn(-c3cccnc3)cc2n1 (stereo not shown) [Compound 248] | ≥ 70% | ≥ 70% | 
CC(C)S(=O)(CCC(F)(F)F)=Nc1cccc2nn(-c3cncc(F)c3)cc12 (stereo not shown) [Compound 104] |  | ≥ 70% | ≥ 70%
N=S(=O)(c1ccc2nn(-c3cncc(F)c3)cc2c1)C1CCC1 (stereo not shown) [Compound 488, cyclobutyl(2-(5-fluoropyridin-3-yl)-2H-indazol-5-yl)(imino)-λ^6-sulfanone] | ≥ 70% |  | 

Structure (SMILES) | mortality at 300 ppm (Myzus persicae) | mortality at 300 ppm (Bemisia tabaci) | mortality at 300 ppm (Nilaparvata lugens)
CCC(C)S(=N)(=O)c1ccc2nn(-c3cncc(F)c3)cc2c1 (stereo not shown) [Compound 479, sec-butyl(2-(5-fluoropyridin-3-yl)-2H-indazol-5-yl)(imino)-λ^6-sulfanone] | ≥ 70% | ≥ 70% | 
N=S(=O)(CC1CC1)c1ccc2nn(-c3cncnc3)cc2c1 (stereo not shown) [Compound 450, (cyclopropylmethyl)(imino)(2-(pyrimidin-5-yl)-2H-indazol-5-yl)-λ^6-sulfanone] |  | ≥ 70% | ≥ 70%
CCCCCS(C)(=O)=Nc1ccc2nn(-c3cncnc3)cc2c1 (stereo not shown) [Compound 33] |  | ≥ 70% | ≥ 70%
CS(=N)(=O)c1ccc2nn(-c3cncnc3)cc2c1 (stereo not shown) [Compound 470, imino(methyl)(2-(pyrimidin-5-yl)-2H-indazol-5-yl)-λ^6-sulfanone] |  | ≥ 70% | ≥ 70%
CCN=S(=O)(c1ccc2nn(-c3cccnc3)cc2c1)C1CCC1 (stereo not shown) [Compound 567] | ≥ 70% |  | 
CCCS(C)(=O)=Nc1ccc2nn(-c3cncnc3)c(Cl)c2c1 (stereo not shown) [Compound 180] | ≥ 70% |  | 
CC(=O)N=S(=O)(c1ccc2nn(-c3cccnc3)cc2c1)C1CCCC1 (stereo not shown) [Compound 581] | ≥ 70% |  | 
CC(C)S(=O)(CCC(F)(F)F)=Nc1cccc2nn(-c3cccnc3)cc12 (stereo not shown) [Compound 102] | ≥ 70% |  | 
CS(C)(=O)=Nc1ccc2nn(-c3cccnc3)cc2n1 [Compound 224] | ≥ 70% | ≥ 70% | 
CCCCS(=O)(=NCC)c1ccc2nn(-c3cccnc3)cc2c1 (stereo not shown) [Compound 390] | ≥ 70% |  | 
COCCS(C)(=O)=Nc1ccc2nn(-c3cncnc3)cc2n1 (stereo not shown) [Compound 237] | ≥ 70% | ≥ 70% | 
CCS(=O)(=NC(C)=O)c1ccc2nn(-c3cncnc3)cc2c1 (stereo not shown) [Compound 456] | ≥ 70% |  | 
CCN=S(=O)(CC)c1ccc2nn(-c3cccnc3)cc2c1 (stereo not shown) [Compound 391] |  | ≥ 70% | ≥ 70%
CCS(=O)(=Nc1ccc2nn(-c3cncc(F)c3)cc2n1)C(C)C (stereo not shown) [Compound 312] | ≥ 70% | ≥ 70% | 
CCCS(=O)(CC)=Nc1cccc2nn(-c3cccnc3)cc12 (stereo not shown) [Compound 136] | ≥ 70% |  | 
Cc1cncc(-n2cc3cc(N=S(C)(C)=O)ccc3n2)c1 [Compound 168] | ≥ 70% |  | 
CS(C)(=O)=Nc1cccc2nn(-c3cncc(F)c3)cc12 [Compound 87] |  | ≥ 70% | ≥ 70%
CCN=S(=O)(c1ccc2nn(-c3cncc(F)c3)cc2c1)C(C)CC (stereo not shown) [Compound 490] | ≥ 70% |  | 
CCS(=N)(=O)c1ccc2nn(-c3cncc(F)c3)cc2c1 (stereo not shown) [Compound 460, ethyl(2-(5-fluoropyridin-3-yl)-2H-indazol-5-yl)(imino)-λ^6-sulfanone] | ≥ 70% |  | 
CCN=S(C)(=O)c1ccc2nn(-c3cncnc3)cc2c1 (stereo not shown) [Compound 474] |  | ≥ 70% | ≥ 70%
CCN=S(=O)(CCCF)c1ccc2nn(-c3cncc(F)c3)cc2c1 (stereo not shown) [Compound 491] | ≥ 70% |  | 
N=S(=O)(c1ccc2nn(-c3cccnc3)cc2c1)C1CCCCC1 (stereo not shown) [Compound 560, cyclohexyl(imino)(2-(pyridin-3-yl)-2H-indazol-5-yl)-λ^6-sulfanone] | ≥ 70% |  | 
CCCS(=O)(CC)=Nc1cccc2nn(-c3cncc(F)c3)cc12 (stereo not shown) [Compound 138] | ≥ 70% |  | 
CCN=S(=O)(c1ccc2nn(-c3cncc(F)c3)cc2c1)C(CC)CC (stereo not shown) [Compound 492] | ≥ 70% |  | 
CCCS(=O)(=Nc1ccc2nn(-c3cccnc3)cc2c1)C(C)C (stereo not shown) [Compound 256] | ≥ 70% |  | 
CC(C)S(=O)(CCC(F)(F)F)=Nc1ccc2nn(-c3cccnc3)cc2c1 (stereo not shown) [Compound 99] | ≥ 70% |  | 
